Experimental data: patent US8460669B2, “Compositions and methods for identifying response targets and treating flavivirus infection responses” (Academia Sinica, priority 2005, dated 2013)

Experiments:
TLT-2.Fc = target: T1, TLT-2.Fc (Homo sapiens, UniProt Q5T2D2); test: Immunosorbent dot binding assay with TLT-2.Fc; conditions: polysaccharide immobilized on PVDF membrane; receptor.Fc 1 μg/mL
T1 construct: The extracellular domains of lectin receptors, TREMs and TLTs were cloned by the reverse-transcriptase polymerase chain reaction (RT-PCR); made in house; host or cells: 293-F (FreeStyle 293) cells
T1 sequence (Q5T2D2 19-268 limits assumed): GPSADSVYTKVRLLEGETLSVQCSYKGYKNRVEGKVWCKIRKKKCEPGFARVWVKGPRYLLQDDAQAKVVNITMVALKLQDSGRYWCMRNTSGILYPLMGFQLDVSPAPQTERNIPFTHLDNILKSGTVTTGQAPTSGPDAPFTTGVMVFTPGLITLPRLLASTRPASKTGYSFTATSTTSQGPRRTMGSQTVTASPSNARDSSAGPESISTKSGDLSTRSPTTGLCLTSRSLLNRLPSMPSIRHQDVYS

KCR.Fc = target: T2, KCR.Fc (Mus musculus, UniProt P70194); test: Immunosorbent dot binding assay with KCR.Fc; conditions: polysaccharide immobilized on PVDF membrane; receptor.Fc 1 μg/mL
T2 construct: the extracellular domains of DVLR1/CLEC5A (MDL-1), Dectin-1, KCR, and DC-SIGN (as a positive control) were fused to the Fc portion of human IgG1; made in house; host or cells: 293-F (FreeStyle 293) cells
T2 sequence (P70194 70-548 limits assumed): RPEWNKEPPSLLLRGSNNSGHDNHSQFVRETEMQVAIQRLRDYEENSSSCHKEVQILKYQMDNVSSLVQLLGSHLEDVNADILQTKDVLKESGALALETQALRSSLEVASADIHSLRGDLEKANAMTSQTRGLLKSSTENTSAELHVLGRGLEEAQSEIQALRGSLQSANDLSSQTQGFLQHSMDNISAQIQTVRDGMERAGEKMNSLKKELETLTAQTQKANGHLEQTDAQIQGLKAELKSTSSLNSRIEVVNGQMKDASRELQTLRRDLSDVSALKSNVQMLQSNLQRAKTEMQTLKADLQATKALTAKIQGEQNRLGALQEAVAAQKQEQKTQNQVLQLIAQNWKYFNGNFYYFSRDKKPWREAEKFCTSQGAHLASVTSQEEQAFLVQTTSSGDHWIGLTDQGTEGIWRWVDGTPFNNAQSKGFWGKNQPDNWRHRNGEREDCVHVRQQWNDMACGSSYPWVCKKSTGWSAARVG

DC-SIGN = target: T3, DC-SIGN (Homo sapiens, UniProt Q9NNX6); test: Sugar competition, biotinylated DV binding to DC-SIGN-transfected 293T cells; assay type: cell-based; conditions: flow cytometry
T3 construct: expressed in transfected cells; host or cells: 293T cells
T3 sequence (Q9NNX6 1-404): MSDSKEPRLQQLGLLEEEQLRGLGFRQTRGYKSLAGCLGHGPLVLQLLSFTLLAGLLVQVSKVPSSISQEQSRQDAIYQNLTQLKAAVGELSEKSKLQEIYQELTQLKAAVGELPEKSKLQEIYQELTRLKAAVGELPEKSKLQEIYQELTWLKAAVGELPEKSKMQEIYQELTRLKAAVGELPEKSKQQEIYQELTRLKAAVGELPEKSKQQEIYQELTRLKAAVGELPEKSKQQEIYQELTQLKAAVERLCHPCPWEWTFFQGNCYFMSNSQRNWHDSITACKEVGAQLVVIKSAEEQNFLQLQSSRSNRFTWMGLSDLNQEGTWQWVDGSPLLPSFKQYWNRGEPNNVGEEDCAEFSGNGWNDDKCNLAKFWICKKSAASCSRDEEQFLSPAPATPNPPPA
Method: In FIG. 16b, complexes of DV (5×10^6 PFU) with receptor.Fc (5 μg) were immunoprecipitated and detected on westerns with mAb to DV envelope (E) protein. […] FIGS. 16d and 16e show sugar competition assays wherein both DC-SIGN (CLEC4L) and DVLR1/CLEC5A increase DV binding to human 293T cells (FIG. 16d), while addition of sugars inhibits biotinylated DV binding to DC-SIGN- (left panel) or DLVR1/CLEC5A- (right panel) transfected 293T cells in a dose-dependent manner as determined by flow cytometry (FIG. 16e). According to FIG. 16e, MFI represents mean fluorescence intensity. Units (U) for monosaccharide (mannose and fucose) and polysaccharide (mannan) are mM and mg/ml, respectively. […] Data are expressed as the mean±s.d. of three independent experiments. Two-tailed, Student's t-tests were performed.
There are two conserved N-linked glycosylation sites at Asn-67 and Asn-153 of E protein (Pokidysheva, E. et al., Cell 124:485-93 (2006)), and the attached glycans (with terminal fucose and mannose) have been implicated in cellular attachment and viral entry (Modis, Y. et al., J. Virol. 79:1223-1231 (2005)). To investigate the participation of glycans in the association of DVLR1/CLEC5A with DV, virions were incubated with fucose, mannose, or mannan; where the last two sugars are the ligands for DC-SIGN (Mitchell et al., J. Biol. Chem. 276: 28939-28945 ([…])).

Row | interaction with TLT-2.Fc in dot-binding assay (TLT-2.Fc) | interaction with KCR.Fc in dot-binding assay (KCR.Fc) | Substance | inhibition of the DC-SIGN-DV interaction (DC-SIGN)
1 | only Dectin-1.Fc can bind | only Dectin-1.Fc can bind | β-1,3-glucan [b-glucan] | 
2 |  |  | mannan | dose-dependent inhibition
